Consider 26 compounds from patent US9765018B2, “IDO inhibitors” (BRISTOL-MYERS SQUIBB COMPANY, priority 2013, dated 2017).

Sequence of IDO (P14902 whole entry): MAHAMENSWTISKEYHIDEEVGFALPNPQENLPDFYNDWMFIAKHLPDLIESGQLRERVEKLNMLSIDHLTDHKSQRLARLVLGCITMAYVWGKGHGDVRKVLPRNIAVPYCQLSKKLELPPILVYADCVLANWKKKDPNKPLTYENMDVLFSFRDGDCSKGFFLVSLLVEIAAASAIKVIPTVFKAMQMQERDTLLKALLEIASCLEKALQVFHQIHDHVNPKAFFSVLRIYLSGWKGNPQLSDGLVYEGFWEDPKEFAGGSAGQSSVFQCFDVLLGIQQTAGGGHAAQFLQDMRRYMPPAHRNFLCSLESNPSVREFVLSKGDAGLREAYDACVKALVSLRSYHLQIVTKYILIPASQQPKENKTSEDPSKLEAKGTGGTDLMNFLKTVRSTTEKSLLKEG

The target of the assay is IDO (Homo sapiens (Human), UniProt P14902). In words: Kynurenine assay in IFN-γ-stimulated Hela cells. It counts as cell-based. The conditions noted are these: 20 h, read-out: Hela Kyurenine (IC50). The protocol:
Reagents: Hela cells (ATCC, CCL-2)
IFNg (R&D, 28-IF-100)—resuspend at 10 ug/mL in PBS with 0.1% BSA 30% TCA
Ehrlich reagent (2% w/v p-dimethylaminobenzaldehyde in glacial acetic acid)
Cell Lines and Culture Conditions
Hela cancer cell lines were acquired from the American Type Culture Collection. Cells were maintained in phenol red free-RPMI1640 medium containing high glucose and L-glutamine (Invitrogen) supplemented with 10% fetal bovine serum (FBS; Invitrogen). Cell cultures were incubated at 37° C., 5% CO2, and 100% humidity.
Cell Treatment and Kynurenine Assay
Hela cells were seeded on 96-well plates (40,000 cells per well) and allowed to adhere for 5-6 hours. Cells were then treated with vehicle (DMSO) or with IDO inhibitor at a top dose of 30 μM (3-fold dilution all the way down to 1.5 nM). A final concentration of 100 ng/mL of human recombinant IFN-γ (R&D, 28-IF-100) was immediately added to the cells to stimulate IDO expression. Treated cells were then incubated for 20 hours at 37° C. At the end of the 20 h incubation, reactions were terminated by the addition of 30% TCA to each well. Plates were incubated for 30 minutes at 50° C. to hydrolyze N-formylkynurenine to kynurenine. Cells were centrifuged 10 minutes at 2400 rpm. 100 ul of supernatants were transferred to new 96 flat well plates and mixed with 100 ul Ehrlich reagent. The resulting solution was incubated 10 minutes at RT. Absorbance at 490 nm was read using Spectra Max 384 (Molecular Devices).
“4′-(2-(tert-butyl)phenoxy)-3′-(3-(4-chlorophenyl)ureido)-4-methoxy-[1,1′-biphenyl]-3-carboxylic acid [Example 106]”: the IC50 was 0.47 µM.

In the case of “4′-(2-(tert-butyl)phenoxy)-3′-(3-(4-fluorophenyl)ureido)-4-methoxy-[1,1′-biphenyl]-3-carboxylic acid [Example 107]”, the IC50 was found to be 0.32 µM. On to `COc1ccc(-c2ccc(O[C@@H]3CCCC[C@H]3C)c(NC(=O)Nc3ccc(C)cc3)c2)cc1C(=O)O` (relative stereo) [Example 134, 4-methoxy-4′-((trans)-2-methylcyclohexyloxy)-3′-(3-p-tolylureido)biphenyl-3-carboxylic acid], for which the IC50 turned out to be 1.39 µM.

As for `COc1ccc(-c2ccc(O[C@@H]3CCCC[C@H]3C)c(NC(=O)Nc3ccccc3C)c2)cc1C(=O)O` (relative stereo) [Example 137, 4-methoxy-4′-((trans)-2-methylcyclohexyloxy)-3′-(3-o-tolylureido)biphenyl-3-carboxylic acid], the IC50 amounted to 2.43 µM.

Turning to `Cc1ccc(NC(=O)Nc2cc(-c3ccccc3-c3nnn[nH]3)ccc2Oc2ccccc2C(C)(C)C)cc1` [Example 4, 1-(4-(2-tert-Butylphenoxy)-2′-(1H-tetrazol-5-yl)biphenyl-3-yl)-3-p-tolylurea], the IC50 was determined as 0.03 µM.

For the compound `Cc1ccc(NC(=O)Nc2cc(-c3ccccc3C(=O)NS(C)(=O)=O)ccc2Oc2ccccc2C(C)(C)C)cc1` [Example 6, 4′-(2-tert-Butylphenoxy)-N-(methylsulfonyl)-3′-(3-p-tolylureido)biphenyl-2-carboxamide], the IC50 was 0.73 µM.

For `COc1ccc(-c2ccc(Oc3ccccc3C(C)(C)C)c(NC(=O)Nc3ccc(C)cc3)c2)cc1C(=O)NS(C)(=O)=O` [Example 41, 4′-(2-tert-butylphenoxy)-4-methoxy-N-(methylsulfonyl)-3′-(3-p-tolylureido)biphenyl-3-carboxamide], the IC50 turned out to be 0.43 µM. In the case of `COc1ccc(-c2ccc(Oc3ccccc3C(C)(C)C)c(NC(=O)Nc3ccccc3C)c2)cc1C(=O)O` [Example 44, 4′-(2-tert-butylphenoxy)-4-methoxy-3′-(3-o-tolylureido)biphenyl-3-carboxylic acid], the IC50 amounted to 0.49 µM.

Consider `CCc1ccccc1Oc1ccc(-c2ccc(OC)c(C(=O)O)c2)cc1NC(=O)Nc1ccc(C)cc1` [Example 47, 4′-(2-ethylphenoxy)-4-methoxy-3′-(3-p-tolylureido)biphenyl-3-carboxylic acid], for which the IC50 is 0.54 µM. In the case of `CCc1ccccc1Oc1ccc(-c2ccc(OC)c(C(=O)O)c2)cc1NC(=O)Nc1ccc(C(F)(F)F)cc1` [Example 48, 4′-(2-ethylphenoxy)-4-methoxy-3′-(3-(4-(trifluoromethyl)phenyl)ureido)biphenyl-3-carboxylic acid], the IC50 was found to be 1.23 µM. The result for `COc1ccc(-c2ccc(Oc3ccccc3Cl)c(NC(=O)Nc3cccc(C)c3)c2)cc1C(=O)O` [Example 50, 4′-(2-chlorophenoxy)-4-methoxy-3′-(3-m-tolylureido)biphenyl-3-carboxylic acid] reads 0.9 µM; that for `COc1ccc(-c2ccc(Oc3ccccc3Cl)c(NC(=O)Nc3ccc(C)cc3)c2)cc1C(=O)O` [Example 51, 4′-(2-chlorophenoxy)-4-methoxy-3′-(3-p-tolylureido)biphenyl-3-carboxylic acid], 0.83 µM; that for `COc1ccc(-c2ccc(Oc3ccccc3Cl)c(NC(=O)Nc3ccccc3C(F)(F)F)c2)cc1C(=O)O` [Example 52, 4′-(2-chlorophenoxy)-4-methoxy-3′-(3-(2-(trifluoromethyl)phenyl)ureido)biphenyl-3-carboxylic acid], 1.27 µM. The result for `COc1ccc(-c2ccc(Oc3ccccc3Cl)c(NC(=O)Nc3ccccc3C)c2)cc1C(=O)O` [Example 53, 4′-(2-chlorophenoxy)-4-methoxy-3′-(3-o-tolylureido)biphenyl-3-carboxylic acid] reads 2.18 µM; that for `CCc1ccccc1Oc1ccc(-c2ccc(OC)c(C(=O)O)c2)cc1NC(=O)Nc1ccccc1Cl` [Example 55, 3′-(3-(2-chlorophenyl)ureido)-4′-(2-ethylphenoxy)-4-methoxybiphenyl-3-carboxylic acid], 0.11 µM.

Take `CCc1ccccc1Oc1ccc(-c2ccc(OC)c(C(=O)O)c2)cc1NC(=O)Nc1ccccc1C` [Example 56, 4′-(2-ethylphenoxy)-4-methoxy-3′-(3-o-tolylureido)biphenyl-3-carboxylic acid]: the IC50 turned out to be 0.13 µM. The result for `COc1ccc(-c2ccc(Oc3c(C)cccc3C(C)(C)C)c(NC(=O)Nc3ccccc3C)c2)cc1C(=O)O` [Example 59, 4′-(2-tert-butyl-6-methylphenoxy)-4-methoxy-3′-(3-o-tolylureido)biphenyl-3-carboxylic acid] reads 0.88 µM; that for `COc1ccc(-c2ccc(Oc3c(C)cccc3C(C)(C)C)c(NC(=O)Nc3ccc(C)cc3)c2)cc1C(=O)O` [Example 61, 4′-(2-tert-butyl-6-methylphenoxy)-4-methoxy-3′-(3-p-tolylureido)biphenyl-3-carboxylic acid], 0.31 µM; that for `CCc1ccc(NC(=O)Nc2cc(-c3ccc(OC)c(C(=O)O)c3)ccc2Oc2ccccc2C(C)(C)C)cc1` [Example 67, 4′-(2-tert-butylphenoxy)-3′-(3-(4-ethylphenyl)ureido)-4-methoxybiphenyl-3-carboxylic acid], 0.58 µM. The result for `COc1ccccc1Oc1ccc(-c2ccc(OC)c(C(=O)O)c2)cc1NC(=O)Nc1ccccc1Cl` [Example 68, 3′-(3-(2-chlorophenyl)ureido)-4-methoxy-4′-(2-methoxyphenoxy)biphenyl-3-carboxylic acid] reads 0.49 µM.

As to `COc1ccc(-c2ccc(Oc3ccccc3C)c(NC(=O)Nc3cccc(C)c3)c2)cc1C(=O)O` [Example 70, 4-methoxy-4′-(o-tolyloxy)-3′-(3-m-tolylureido)biphenyl-3-carboxylic acid], the IC50 was determined as 0.39 µM. Take `COc1ccc(-c2ccc(Oc3ccccc3C)c(NC(=O)Nc3ccccc3Cl)c2)cc1C(=O)O` [Example 71, 3′-(3-(2-chlorophenyl)ureido)-4-methoxy-4′-(o-tolyloxy)biphenyl-3-carboxylic acid]: the IC50 came to 0.18 µM. Regarding `COc1ccc(-c2ccc(Oc3ccccc3C)c(NC(=O)Nc3ccccc3C)c2)cc1C(=O)O` [Example 72, 4-methoxy-4′-(o-tolyloxy)-3′-(3-o-tolylureido)biphenyl-3-carboxylic acid], the IC50 came to 0.38 µM. The result for `COc1ccc(-c2ccc(Oc3ccccc3C(C)(C)C)c(NC(=O)Nc3ccccc3)c2)cc1C(=O)O` [Example 78, 4′-(2-(tert-butyl)phenoxy)-4-methoxy-3′-(3-phenylureido)-[1,1′-biphenyl]-3-carboxylic acid] reads 0.08 µM.

As to `COc1ccc(-c2ccc(Oc3ccccc3C(C)(C)C)c(NC(=O)Nc3c(F)cccc3F)c2)cc1C(=O)O` [Example 80, 4′-(2-(tert-butyl)phenoxy)-3′-(3-(2,6-difluorophenyl)ureido)-4-methoxy-[1,1′-biphenyl]-3-carboxylic acid], the IC50 was found to be 0.13 µM. The result for `COc1ccc(-c2ccc(Oc3ccccc3C(C)(C)C)c(NC(=O)Nc3c(Cl)cccc3Cl)c2)cc1C(=O)O` [Example 82, 4′-(2-(tert-butyl)phenoxy)-3′-(3-(2,6-dichlorophenyl)ureido)-4-methoxy-[1,1′-biphenyl]-3-carboxylic acid] reads 0.84 µM.
